Laboratory results published in patent US7598279B2, “Neurotherapeutic azole compounds” (SK Holdings Co., Ltd., priority 2005, dated 2009).

Columns and labels:
mice [1] = assay: Maximal ElectroShock (MES)-induced tonic seizure test; format: in vivo; conditions: Mus musculus; for ED50: read-out: Mice MES ED50 (mpk/peak time); for responders at 50 mg/kg: 4 h
Experimental: The “Maximal ElectroShock (MES)” test is a well-established pharmacological screening method for anticonvulsants against tonic-clonic seizures. The procedure employed in the MES test for anticonvulsants is as follows. The compounds to be tested were dissolved in 30% PEG400 and administered ip and po into animals. After the designated number of hours, maximal electroshock (50 mA, 60 Hz, 0.2 sec) was applied into animals via corneal electrodes using IITC Life Science model 11A Shocker. […] Median efficacy dose (ED50) levels were determined using three different dose levels with at least 8 mice in each group.

rat dopamine transporter = biological target: T1, rat dopamine transporter (Rattus norvegicus, UniProt P23977); assay: Dopamine transport (DAT) assay, [3H]dopamine uptake in CHO D8 cells; format: cell-based
T1 construct: expressed in transfected cells
T1 sequence (P23977 whole entry): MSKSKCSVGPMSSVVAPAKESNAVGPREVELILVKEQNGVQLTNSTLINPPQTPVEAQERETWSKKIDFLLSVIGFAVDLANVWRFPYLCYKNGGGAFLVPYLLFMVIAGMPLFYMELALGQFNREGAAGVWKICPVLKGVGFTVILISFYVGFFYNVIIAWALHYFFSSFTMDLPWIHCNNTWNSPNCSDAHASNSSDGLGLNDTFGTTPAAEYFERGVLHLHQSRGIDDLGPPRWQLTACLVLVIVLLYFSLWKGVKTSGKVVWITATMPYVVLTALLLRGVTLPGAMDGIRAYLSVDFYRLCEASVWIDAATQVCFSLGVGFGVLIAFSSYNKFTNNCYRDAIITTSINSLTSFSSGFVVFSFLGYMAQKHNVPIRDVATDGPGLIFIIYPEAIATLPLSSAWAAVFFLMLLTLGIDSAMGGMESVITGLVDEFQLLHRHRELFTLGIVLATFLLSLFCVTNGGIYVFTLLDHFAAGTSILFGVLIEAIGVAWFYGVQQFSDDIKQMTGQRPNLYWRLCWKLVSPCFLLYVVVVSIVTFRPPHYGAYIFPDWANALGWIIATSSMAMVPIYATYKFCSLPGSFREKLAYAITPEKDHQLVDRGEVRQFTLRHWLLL
Experimental: The “Dopamine Transport (DAT)” assay for dopamine uptake inhibition was also carried out. In order to test dopamine uptake inhibition, compounds of the inventions were assayed as modified from Zhaoping Liu et. al., Neuropharmacology, 2001, 41, 464.
Cultured CHO cells were […] with recombinant plasmid, DAT-pCDNA3, which encodes rat dopamine transporter. Several subclones were selected and assayed for [3H] dopamine uptake. The clone with the highest uptake, designated D8, was chosen for Dopamine transport assay of compounds.
For the Dopamine transport assay, D8 cells were cultured in 48-well plate using RMPI1640 containing 10% FCS. D8 cells, grown to 60,000 cells per well, each wells were rinsed once with phosphate buffered saline (PBS) and pre-incubated in 100 μl Hank's balanced salt solution (HBSS) for 10 min at room temperature. The buffer was then changed to 50 μl HBSS containing the tested compounds and 350 μl HBSS containing reaction components ([3H] dopamine, ascorbic acid and pargyline). Final concentrations of [3H] dopamine, ascorbic acid and pargyline are 151 nM, 100 μM and 100 μM, respectively. The cells were incubated for 20 min at room temperature and the reaction was terminated by aspiration of the buffer and washed three times with 1 ml cold BS. The cells were then solubilized in 2N NaOH and an aliquot was measured by liquid scintillation counting to quantify the uptake of [3H] dopamine.

mice [2] = assay: Pentylenetetrazol (PTZ)-induced clonic seizure test; format: in vivo; conditions: Mus musculus, sc, read-out: Mice PTZ ED50 (mpk/peak time)
Experimental: The “Pentylenetetrazol (PTZ)” test for anticonvulsant and antianxiety activity was also carried out.
The procedure employed in the PTZ test is as follows. The compounds to be tested were dissolved in 30% PEG400 and administered ip and po into animals. After the designated number of hours, each animal was injected subcutaneously with 100 mg/kg of PTZ (CD97 dose) and observed for up to 30 minutes for the presence or absence of clonic spasms over 5 seconds. Median efficacy dose (ED50) levels were determined using three different dose levels with 8 mice in each group.

[3] = system: TBPS site of GABA-A receptor; assay: GABA-A receptor (TBPS site) binding assay, [35S]TBPS; conditions: 100 μM; rat brain membranes, 2 nM [35S]TBPS
Experimental: Compounds of the inventions were tested for specific binding to TBPS (t-butyl bicyclophosphorothionate) site, an allosteric modulator site of GABA-A receptor as modified from G. Maksay and M. Simonyi, Eur. J. Pharmacol. 1985, 117(2), 275. and Gee, K. W. et al., J. Pharm. Exp. Ther. 1988, 246, 803.
This binding assay was performed using [35S] TBPS as radioligand in washed crude membrane homogenate from rat brains. Membrane preparations were carried out according to procedure described below. Sprague-Dawley (SD) rat weighting 230 g were killed by decapitation and their whole brains were rapidly removed and its cerebellums were excluded. The dissected brains were homogenized for 30 sec in 10 volumes (W/V) of ice-cold 0.32 M Sucrose and 50 mM Tris-citrate buffer pH 7.4 using glass homogenate. The homogenate was centrifuged at 2,000×g for 5 min at 4° C. And the supernatant re-centrifuged at 50,000×g for 20 min at 4° C. The supernatant was discarded and the resulting pellets were resuspended in 10 volumes (W/V) of ice-cold 50 mM Tris-citrate buffer pH 7.4. And then the suspended pellet was centrifuged at 50,000×g for 20 min at 4° C. The resulting pellets were suspended again in 32 volumes (W/V) of ice-cold 50 mM Tris-citrate buffer pH 7.4 with 0.05% Triton X-100 and then incubated in 37° C. for 60 min using a water bath. The incubated suspension was centrifuged at 50,000×g for 20 min at 4° C. Resuspending and centrifugation step of the remained pellets were repeated twice at the same manner and final pellets were resuspended in 10 volumes (W/V) of ice-cold 50 mM Tris-citrate buffer pH 7.4 to enable distribution of 2 ml aliquot in microcentrifuge tube, which were used immediately or kept at −80° C. for no more than 1 month before use.
For TBPS site binding assay, 50 μl of the tested compound were added to 100 μg membrane protein suspended in 0.15 ml of 50 mM Tris-citrate buffer with 200 mM NaCl pH 7.4 in presence of 2 nM of [35S] TBPS. The incubation of mixtures were carried out for 1.5 hours at 25° C. and then rapidly filtered over Whatman GF/C glass fiber filters, followed by twice 4.5 ml rinses with ice-cold incubation buffer. The filters were placed in counting vials and 4 ml scintillation solution. The vials were counted in a Beckman scintillation counter. Non-specific binding was determined in parallel incubations with 100 μM picrotoxin.
IC50 values for TBPS site binding assay was calculated using Graphpad PRISM v.3.00.

mice [4] = assay: Light-Dark Box (LDB) test; format: in vivo; conditions: treated 30 min prior to testing
Experimental: Light-Dark Box (LDB) test, one of the unconditioned conflict tests, was used to investigate anxiolytic activity for several drugs such as Diazepam, Buspirone, etc (Allikmets et al, 1996; Belzung and Griebel, 2001; Cutler and Aitken, 1991; Leyre et al, 2004). In the present study, anxiolytic effect of azole compounds containing carbamoyl group represented by general structural formula (IX) was investigated on the LDB test in mice.
The animals were treated with compound 30 min prior to testing. The light-dark box consisted of a plexiglas apparatus measuring 45 cm×27 cm×27 cm (L×W×H), and was partitioned into two compartments, one fully opaque (dark compartment made of black plexiglas: 18 cm of total length of apparatus), while the second was lit from the compartment ceiling by a 100 W bulb. A small opening (7×7 cm) in the partition wall allowed free passage between the light and dark compartments.
Animals were placed at the lit compartment first, and the latency for escape into dark was checked and tested in the LDB for 5 min after the first entering into dark box. The animal, which the latency was over 2 min, was excluded from the test. Total time spent in the light compartment was counted. Movement of animal was checked through the TV-CCD camera by an experienced observer blind to the conditions of the experiment. A mouse whose four paws were in the new box was considered as having changed box.

mice [5] = assay: Forced swimming test (FST); format: in vivo; conditions: 30 min after dosing
Experimental: The “Forced swimming test (FST)” for antidepressant activity was also carried out. The procedure employed in the FST for antidepressant is as follows. The compounds to be tested were dissolved in 30% PEG400 and administered ip and po into animals. 30 min later, the immobility time during post 4 minutes of 6 minutes experiment time was measured.

mice and rats = conditions: cited from earlier work
clonic seizures = conditions: in vivo; cited from earlier work
mice [6] = conditions: probably by inhibition of cytochrome P-450; cited from earlier work
[7] = read-out: Mice MES Protection % (mpk/peak time)

`NC(=O)O[C@H](Cn1ncnn1)c1ccccc1Cl` [Example 21, Carbamic acid (S)-1-(2-chloro-phenyl)-2-tetrazol-2-yl-ethyl ester] showed an ED50 (mice [1]; 0.5 h) of 14.2 mg/kg, an inhibition at 10 µM (rat dopamine transporter) of 20.9% and an ED50 (mice [2]; 0.5 h) of 28.8 mg/kg.
With `NC(=O)O[C@H](Cn1nccn1)c1ccc(Cl)c(Cl)c1` [Example 87, Carbamic acid (S)-1-(3,4-dichloro-phenyl)-2-[1,2,3]triazol-2-yl-ethyl ester] the ED50 (mice [1]; 0.5 h) was 14.8 mg/kg, the inhibition at 10 µM (rat dopamine transporter) was 93.8% and the “TBPS Inhibition % (At 100 μM)” value [3] was 50.1%. For the same molecule, the “Mice LDB % Duration in the light box” value (mice [4]) was “N.S” and the “Mice FST Reduction of immobility %” value (mice [5]; dose not given) was 92.5%.
With `NC(=O)O[C@H](Cn1ncnn1)c1ccc(Cl)c(Cl)c1` [Example 96, Carbamic acid (S)-1-(3,4-dichloro-phenyl)-2-tetrazol-2-yl-ethyl ester] the ED50 (mice [1]; 0.5 h) was 10.4 mg/kg, the inhibition at 10 µM (rat dopamine transporter) was 98.4% and the “Mice FST Reduction of immobility %” value (mice [5]; dose not given) was 95.8%.
In the case of `NC(=O)OC(Cn1ncnn1)c1ccc(Cl)cc1Cl` (stereo not drawn) [Example 30, Carbamic acid 1-(2,4-dichloro-phenyl)-2-tetrazol-2-yl-ethyl ester], the ED50 (mice [1]; 1 h) is reported as 14.9 mg/kg, the inhibition at 10 µM (rat dopamine transporter) is reported as 15.1% and the “Mice LDB % Duration in the light box” value (mice [4]; dose not given) is reported as 143.6% ^. For the same molecule, the ED50 (mice [2]; 1 h) was 12.2 mg/kg and the “Mice FST Reduction of immobility %” value (mice [5]) was “N.S”.
With `NC(=O)OC(Cn1nccn1)c1ccc(Cl)cc1Cl` (stereo not drawn) [Example 29, Carbamic acid 1-(2,4-dichloro-phenyl)-2-[1,2,3]triazol-2-yl-ethyl ester] the ED50 (mice [1]; 1 h) was 14.4 mg/kg, the inhibition at 10 µM (rat dopamine transporter) was -27.5% and the “Mice LDB % Duration in the light box” value (mice [4]; dose not given) was 288.5% ^. For the same molecule, the ED50 (mice [2]; 1 h) was 16.8 mg/kg and the “Mice FST Reduction of immobility %” value (mice [5]) was “N.S”.
For `NC(=O)OC(Cn1ncnn1)c1ccccc1` (stereo not drawn) [Example 4, Carbamic acid 1-phenyl-2-tetrazol-2-yl-ethyl ester], the responders at 30 mg/kg (mice [1]; 0.5 h, read-out: Mice MES Protection % (mpk/peak time)) was 66.7%, the inhibition at 10 µM (rat dopamine transporter) was 41.5% and the “Mice FST Reduction of immobility %” value (mice [5]; dose not given) was 40.3%.
For `NC(=O)OC(Cn1nccn1)c1ccc(Cl)c(Cl)c1` (stereo not drawn) [Example 25, Carbamic acid 1-(3,4-dichloro-phenyl)-2-[1,2,3]triazol-2-yl-ethyl ester], the responders at 50 mg/kg (mice [1]; [7]) was 100%, the inhibition at 10 µM (rat dopamine transporter) was 70.7% and the “Mice FST Reduction of immobility %” value (mice [5]; dose not given) was 94.1%.
For `NC(=O)OC(Cn1nccn1)c1ccccc1Cl` (stereo not drawn) [Example 1, Carbamic acid 1-(2-chloro-phenyl)-2-[1,2,3]triazol-2-yl-ethyl ester], the ED50 (mice [1]; 0.5 h) was 10.7 mg/kg, the inhibition at 10 µM (rat dopamine transporter) was 47.3% and the “TBPS Inhibition % (At 100 μM)” value [3] was 18.3%. The ED50 (mice [2]; 0.5 h) was 24.5 mg/kg and the “Mice FST Reduction of immobility %” value (mice [5]) was “N.S”.
In the case of `NC(=O)O[C@@H](Cn1ncnn1)c1ccccc1Cl` [Example 20, Carbamic acid (R)-1-(2-chloro-phenyl)-2-tetrazol-2-yl-ethyl ester], the ED50 (mice [1]; 0.5 h) is reported as 4.24 mg/kg, the inhibition at 10 µM (rat dopamine transporter) is reported as 7.1% and the ED50 (mice [2]; 0.5 h) is reported as 3.76 mg/kg. For the same molecule, the “Mice FST Reduction of immobility %” value (mice [5]; dose not given) was −24.3%.
In the case of `OC(Cn1ccnc1)c1ccc(CCc2ccccc2)cc1` (stereo not drawn) [denzimol, α-(4-(2-phenylethyl)phenyl)-1H-imidazole-1-ethanol], the “protection against maximal electroshock- or pentylenetetrazole-induced tonic seizures” value (mice and rats) is listed as “protect”, the “antagonism of clonic seizures induced by pentylenetetrazole, strychnine, bicuculline, or picrotoxin” value (clonic seizures) is listed as “do not antagonize” and the hexobarbital-induced sleeping time (mice [6]) is listed as “potentiated”.
For `NC(=O)OC(Cn1ncnn1)c1ccc(Cl)c(Cl)c1` (stereo not drawn) [Example 26, Carbamic acid 1-(3,4-dichloro-phenyl)-2-tetrazol-2-yl-ethyl ester], the responders at 50 mg/kg (mice [1]; [7]) was 100%, the inhibition at 10 µM (rat dopamine transporter) was 88.2% and the “Mice FST Reduction of immobility %” value (mice [5]; dose not given) was 97.5%.
Work on `NC(=O)OC(Cn1nccn1)c1ccccc1` (stereo not drawn) [Example 7, Carbamic acid 1-phenyl-2-[1,2,3]triazol-2-yl-ethyl ester] yielded an ED50 (mice [1]; 0.5 h) of 26.2 mg/kg and an inhibition at 10 µM (rat dopamine transporter) of -21.1%.
In the case of `O=C(Cn1ccnc1)c1ccc2ccccc2c1` [Nafimidone, 2-(1H-imidazole-1-yl)-1-(2-naphthalenyl)ethanone], the “protection against maximal electroshock- or pentylenetetrazole-induced tonic seizures” value (mice and rats) is listed as “protect”, the “antagonism of clonic seizures induced by pentylenetetrazole, strychnine, bicuculline, or picrotoxin” value (clonic seizures) is listed as “do not antagonize” and the hexobarbital-induced sleeping time (mice [6]) is listed as “potentiated”.
In the case of `CNC(=O)O[C@@H](Cn1ncnn1)c1ccccc1Cl` [Example 45, Methyl-carbamic acid (R)-1-(2-chloro-phenyl)-2-tetrazol-2-yl-ethyl ester], the ED50 (mice [1]; 0.5 h) is reported as 4.88 mg/kg, the inhibition at 10 µM (rat dopamine transporter) is reported as -58.1% and the “Mice LDB % Duration in the light box” value (mice [4]) is reported as “N.S”. It also gave an ED50 (mice [2]; 0.5 h) of 5.81 mg/kg.
